Residues, ends and D or L forms follow the SMILES beside them. *: point of attachment. Boc = CC(C)(C)OC(=O)*; Bn = c1ccc(C*)cc1
SMILES | melting point [°C]
CCN(c1nc(OCCOC(=O)CCC(=O)OCCOc2nc(N(CC)C3CC(C)(C)NC(C)(C)C3)nc(N(CC)C3CC(C)(C)NC(C)(C)C3)n2)nc(N(CC)C2CC(C)(C)NC(C)(C)C2)n1)C1CC(C)(C)NC(C)(C)C1 | 85
C=C(C)[C@@H]1CC[C@]2(C(=O)N[C@H]3C[C@@H](C(=O)N4CCCCC4)C3(C)C)CC[C@]3(C)[C@H](CC[C@@H]4[C@@]5(C)CC[C@H](OC(=O)[C@@H]6C[C@H](C(=O)O)C6(C)C)C(C)(C)[C@@H]5CC[C@]43C)[C@@H]12 | 258 to 269
CC(C)CCCOC(=O)NCCc1nc(-c2ccc(-c3ccccc3)cc2)c[nH]1 | 128
Nc1cccc(CN2C(=O)C3(COc4cc5c(cc43)OCCO5)c3ccccc32)n1 (stereo not given) | 240 to 241
CC1(C)CC(OC(=O)C(CCCCCCC(Cc2ccccc2)(C(=O)OC2CC(C)(C)NC(C)(C)C2)C(=O)OC2CC(C)(C)NC(C)(C)C2)(Cc2ccccc2)C(=O)OC2CC(C)(C)NC(C)(C)C2)CC(C)(C)N1 | 129 to 130
CCCCC(CC)CN1C(=O)C(=c2[nH]c(=c3[nH]c(=C4C(=O)N(CC(CC)CCCC)C(=O)N(CC(CC)CCCC)C4=O)c4ccccc34)c3ccccc23)C(=O)N(CC(CC)CCCC)C1=O (stereo not given) | 198 to 206
O=C(OCc1ccc(OCCCCCCCCCCC2c3c(c4ccccc4c4ccccc34)-c3c2c2ccccc2c2ccccc32)cc1)C(=CNC1CC1)C(=O)c1cc(F)c(F)cc1F | 49 to 51
O=S(=O)(C(/C=C/c1ccc(I)cc1)c1ccc(Br)cc1)C(/C=C/c1ccc(I)cc1)c1ccc(Br)cc1 (stereo not given) | 201 to 203
COC(=O)c1ccc(Cn2c(C(=O)C3CCN(CCC4(c5ccc(OC)c(OC)c5)CCN(C(=O)c5cc(OC)c(OC)c(OC)c5)C4)CC3)nc3ccccc32)cc1 (stereo not given) | 100 to 104
O=S(=O)(C(/C=C/c1ccc(Br)cc1)c1ccc(I)cc1)C(/C=C/c1ccc(Br)cc1)c1ccc(I)cc1 (stereo not given) | 217 to 219
CCOC(=O)c1c(Nc2ccccc2)n[nH]c1C | 160 to 164
CC1(C)CC(N(c2nc(N(C3CC(C)(C)N(O)C(C)(C)C3)C3CC(C)(C)N(O)C(C)(C)C3)nc(N(C3CC(C)(C)N(O)C(C)(C)C3)C3CC(C)(C)N(O)C(C)(C)C3)n2)C2CC(C)(C)N(O)C(C)(C)C2)CC(C)(C)N1O | 258 to 261
CCC(C)(C)c1ccc(OCC(=O)Nc2cccc(C(=O)Nc3[nH]n(-c4c(Cl)cc(Cl)cc4Cl)c(=O)c3OC(=O)Nc3ccccc3)c2)c(C(C)(C)CC)c1 | 72 to 77
COc1cccc(-c2cc3ncnc(Nc4ccc5[nH]ccc5c4)c3s2)c1 | 160 to 168
CS(C)(=O)=NC(=O)c1cccc(Oc2ccc(C(F)(F)F)cc2Cl)c1 | 110 to 113
CCCCCCCCNC1(NC(=O)c2ccccc2-c2ccc(CCCCCCCC)cc2)CC(CCCC)=C(NC(=O)c2ccccc2-c2ccc(CCCCCCCC)cc2)C2=C1C(=O)c1ccccc1C2=O (stereo not given) | 94 to 95
CC(C)CCCC(C)C1CCC2C3CC=C4CC(N(CCCNC(=O)CCNC(=O)CCNC(=O)CCCCCNc5ccc([N+](=O)[O-])c6nonc56)S(=O)(=O)c5ccccc5[N+](=O)[O-])CCC4(C)C3CCC12C (stereo not given) | 113 to 114
CC(C)(O)CCOc1c(-c2ccc(S(N)(=O)=O)cc2)cnn(-c2ccc(F)cc2)c1=O | 163 to 164
Cc1ccc2cccc(OCc3c(Cl)ccc(S(=O)(=O)N4CCC[C@H]4C(=O)NC4CCN(C(=O)CCCN(C=NC(=O)OC(C)(C)C)NC(=O)OC(C)(C)C)CC4)c3Cl)c2n1 | 102 to 105

SMILES | melting point [°C]
CC(=O)OCC(CNC(=O)c1c(I)c(NC(=O)C2CCCO2)c(I)c(C(=O)NCC(COC(C)=O)OC(C)=O)c1I)OC(C)=O (stereo not given) | 101 to 104
CC1=C(CC(=O)O)c2cc(C#N)ccc2C1=Cc1ccc(S(C)=O)cc1 (stereo not given) | 160 to 165
CCCCN(c1nc(NC(C)(C)CC(C)(C)C)nc(N(CCCC)C2CC(C)(C)N(OC3CCCCC3)C(C)(C)C2)n1)C1CC(C)(C)N(OC2CCCCC2)C(C)(C)C1 | 85 to 103
COc1cc(OC)c(/C=C/C(c2ccc(OC)c(NC(=O)c3ccccc3)c2)S(=O)(=O)C(/C=C/c2c(OC)cc(OC)cc2OC)c2ccc(OC)c(NC(=O)c3ccccc3)c2)c(OC)c1 (stereo not given) | 163 to 166
CC(C)(C)c1cc(SC(CCCC(Sc2cc(C(C)(C)C)c(O)c(C(C)(C)C)c2)Sc2cc(C(C)(C)C)c(O)c(C(C)(C)C)c2)Sc2cc(C(C)(C)C)c(O)c(C(C)(C)C)c2)cc(C(C)(C)C)c1O | 148 to 153
CCCCCCCCCCCCCC(=O)NC1C(OCC(=O)O)OC(COC2OC(CO)C(OP(=O)(O)O)C(OC(=O)CNC(=O)CCCCCCCCCCC)C2NC(=O)CCCCCCCCCCCCC)C(O)C1OC(=O)CCCCCCCCCCCCC (stereo not given) | 150 to 155
Cc1ccc(OCC(=O)O)c(C(=O)NCc2ccc(Br)cc2F)c1 | 145 to 146
CCCCCCCCCCCCc1cc(-c2c(Cl)c(Cl)c(-c3cc(CCCCCCCCCCCC)c(Br)s3)c3nsnc23)sc1Br | 60 to 61
CC(C)[C@H](NC(=O)N(C)Cc1csc(N)n1)C(=O)N[C@@H](Cc1ccccc1)C[C@H](O)[C@H](Cc1ccccc1)NC(=O)[C@@H](NC(=O)N(C)Cc1csc(N)n1)C(C)C | 110 to 114
COC(=O)C(C)NC(=O)C(COCc1ccccc1)NC(=O)C(Cc1ccc(OCc2ccccc2)cc1)NC(=O)C(Cc1c[nH]c2ccccc12)NC(=O)OC(C)(C)C (stereo not given) (Boc-WY(Bn)S(Bn)A-OMe; configuration not given here) | 178 to 182
C=CC1=C(C)c2cc3[nH]c(cc4nc(cc5[nH]c(cc1n2)c(C)c5CCC(=O)OCCCCCCN(C)C)C(CCC(=O)OCCCCCCN(C)C)=C4C)c(C)c3C=C | 160 to 165
Cc1ccc(S(=O)(=O)N2CCN(S(=O)(=O)c3ccc(C)cc3)CCN(S(=O)(=O)c3ccc(C)cc3)CC(C)N(S(=O)(=O)c3ccc(C)cc3)CCN(S(=O)(=O)c3ccc(C)cc3)CC2)cc1 (stereo not given) | 245 to 247
CCOC(=O)OC1=C(c2cc(C)ccc2C)C(=O)NC1CC1CCS(=O)(=NC(=O)C(F)(F)F)CC1 (stereo not given) | 87 to 89
CCOC(=O)[C@@H](CCC(=O)N1c2ccccc2C[C@H]1C(=O)OCC)NC(=O)[C@H](CCCCNSc1ncccc1[N+](=O)[O-])NC(=O)OCc1ccc2c(c1)OCO2 | 130 to 135
CC(C)CCCC(C)C1CCC2C3CC=C4CC(N(CCCNC(=O)CCNC(=O)CCNC(=O)CCCCCNc5ccc([N+](=O)[O-])cc5[N+](=O)[O-])S(=O)(=O)c5ccccc5[N+](=O)[O-])CCC4(C)C3CCC12C (stereo not given) | 106 to 108
CC(C)CC1C(=O)OC(Cc2ccc(OCc3ccco3)cc2)C(=O)N(C)C(CC(C)C)C(=O)OC(C)CN(C)C(CC(C)C)C(=O)OC(Cc2ccc(OCc3ccco3)cc2)C(=O)N(C)C(CC(C)C)C(=O)OC(C)CN1C (stereo not given) | 116 to 119
CCc1nc(C)c(C(=O)OCOC(=O)C(C)(C)C)n1Cc1ccc2oc(-c3ccccc3-c3nnn(C(c4ccccc4)(c4ccccc4)c4ccccc4)n3)c(Br)c2c1 | 51 to 53
CCCCCCC1(CCCCCC)c2cc(Br)ccc2-c2ccc(-c3ccc(-c4ccc5c(c4)C(CCCCCC)(CCCCCC)c4cc(Br)ccc4-5)c4snnc34)cc21 | 188 to 190

Now from value to compound:

melting point [°C] | SMILES
94 to 96 | COc1cc(OC)c(/C=C/C(c2ccc(OC)c(OC)c2OC)S(=O)(=O)C(/C=C/c2c(OC)cc(OC)cc2OC)c2ccc(OC)c(OC)c2OC)c(OC)c1 (stereo not given)
55 | CN1C(=O)C(Br)=C(c2cn(C3OC(COCc4ccccc4)C(OCc4ccccc4)C(OCc4ccccc4)C3OCc3ccccc3)c3ccccc23)C1=O (stereo not given)
176 to 180 | COc1cc(OC)c(/C=C/C(c2ccc(OC)c(NC(C)C(=O)O)c2)S(=O)(=O)C(/C=C/c2c(OC)cc(OC)cc2OC)c2ccc(OC)c(NC(C)C(=O)O)c2)c(OC)c1 (stereo not given)
76.5 to 78 | CCOC(=O)C1=C(COCC(O)C(O)COCC2=C(C(=O)OCC)C(c3ccccc3Cl)C(C(=O)OC)=C(C)N2)NC(C)=C(C(=O)OC)C1c1ccccc1Cl (stereo not given)
110 | O=C(Oc1cccc2cc3cccc(OC(=O)c4ccccc4Oc4ccccc4)c3c(OC(=O)c3ccccc3Oc3ccccc3)c12)c1ccccc1Oc1ccccc1
184 | CS(C)(=O)=NS(=O)(=O)c1cccc(F)c1C#N
71 to 74 | CCOC(=O)C(C)OC1C(Cl)=C(OC2=C(Cl)C(OC(C)C(=O)OCC)C(c3ccccc3C(F)(F)F)([N+](=O)[O-])C=C2)C=CC1(c1ccccc1C(F)(F)F)[N+](=O)[O-] (stereo not given)
122 to 125 | Cc1cc(F)c(-n2nc(C(F)(F)F)nc2NC(=O)C(F)(F)F)cc1C(SC(c1cc(-n2nc(C(F)(F)F)nc2NC(=O)C(F)(F)F)c(F)cc1C)C(F)(F)F)C(F)(F)F (stereo not given)
55 to 58 | Nc1cc(C(F)(F)C(F)(F)OC(F)(F)C(F)(OC(F)(F)C(F)(F)OC(F)(C(F)(F)F)C(F)(F)OC(F)(F)C(F)(F)c2ccc(O)c(N)c2)C(F)(F)F)ccc1O (stereo not given)
130 to 134 | CC(=O)OCC(CNC(=O)c1c(I)c(C(=O)NCC(COC(C)=O)OC(C)=O)c(I)c(N2CCCCC2=O)c1I)OC(C)=O (stereo not given)
312 to 314 | COc1cc(NC(=O)N2CCCC2)c(S(C)(=N)=O)cc1OC (stereo not given)
159 to 161 | CCCCCCCCCCCCN1C(=O)NC2(CC(C)(C)N(CC(O)COc3ccc(C(C)(C)c4ccc(OCC(O)CN5C(C)(C)CC6(CC5(C)C)NC(=O)N(CCCCCCCCCCCC)C6=O)cc4)cc3)C(C)(C)C2)C1=O (stereo not given)
88 to 89.5 | CCCCCC/C(=C\C=C\C(=O)O)c1ccc(OC)cc1
179 to 180 | COc1cc(OC)c(/C=C/C(c2ccc(OC)c(NC(=O)C(F)(F)F)c2)S(=O)(=O)C(/C=C/c2c(OC)cc(OC)cc2OC)c2ccc(OC)c(NC(=O)C(F)(F)F)c2)c(OC)c1 (stereo not given)
72.8 | C=CC(=O)OCCCCCCCCCCCOc1ccc(-c2nc(-c3ccc(OCCCCCCCCCCCOC(=O)C=C)cc3O)nc(-c3ccc(OCCCCCCCCCCCOC(=O)C=C)cc3O)n2)c(O)c1
214 to 216 | C=CCOCC(=O)Nc1c(I)c(C(=O)NC(COC(C)=O)COC(C)=O)c(I)c(C(=O)NC(COC(C)=O)COC(C)=O)c1I
112 to 114 | CCCCCCCCCCCCNC(=O)c1cccc(Sc2c(Nc3cc(C(=O)NCCCCCCCCCCCC)ccc3Cl)nn(-c3c(Cl)cc(Cl)cc3Cl)c2OS(=O)(=O)c2ccccc2)c1
150 | O=C(O)CN(CC(COCc1ccccc1)N(CCCOCc1ccccc1)CC(=O)O)CC(COCc1ccccc1)N(CCCOCc1ccccc1)CC(=O)O (stereo not given)
